Measurements taken from PubChem BioAssay AID330 (DTP/NCI, 2004).
Values joined by “and” are separate entries in the source; they are usually repeats but may differ in a detail not shown here. Equal values may be shown once. Inconclusive results and toxic doses are left out. How the source made its calls: active means survival T/C of 150% or more; inactive means T/C below 125% in these data.

Tested on: P388 leukemia ip, CD2F1 mice, survival T/C
Assay: NCI In Vivo Anticancer Drug Screen. Data for tumor model P388 Leukemia (intraperitoneal) in CD2F1 (CDF1) mice
Settings: endpoint: median survival time, higher = longer survival
Summary of the method: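 Mice carrying the transplanted tumor received test compound or vehicle. Survival was recorded in each group, and the value is the treated-group measurement divided by that of the vehicle-treated control group.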

[1] = dose: 60.0 mg/kg/injection, schedule: Q01DX005 (ip), vehicle: Klucel (hydroxypropylcellulose) (HPC)
[2] = dose: 120.0 mg/kg/injection, schedule: Q01DX005 (ip), vehicle: Klucel (hydroxypropylcellulose) (HPC)
[3] = dose: 240.0 mg/kg/injection, schedule: Q01DX005 (ip), vehicle: Klucel (hydroxypropylcellulose) (HPC)
[4] = dose: 50.0 mg/kg/injection, schedule: Q01DX005 (ip), vehicle: saline with Tween-80
[5] = dose: 100.0 mg/kg/injection, schedule: Q01DX005 (ip), vehicle: saline with Tween-80
[6] = dose: 200.0 mg/kg/injection, schedule: Q01DX005 (ip), vehicle: saline with Tween-80
[7] = dose: 50.0 mg/kg/injection, schedule: Q01DX005 (ip), vehicle: Klucel (hydroxypropylcellulose) (HPC)
[8] = dose: 100.0 mg/kg/injection, schedule: Q01DX005 (ip), vehicle: Klucel (hydroxypropylcellulose) (HPC)
[9] = dose: 50.0 mg/kg/injection, schedule: Q01DX009 (ip), vehicle: saline
[10] = dose: 100.0 mg/kg/injection, schedule: Q01DX009 (ip), vehicle: saline
[11] = dose: 200.0 mg/kg/injection, schedule: Q01DX009 (ip), vehicle: saline
[12] = dose: 200.0 mg/kg/injection, schedule: Q04DX002 (ip), vehicle: saline with Tween-80
[13] = dose: 60.0 mg/kg/injection, schedule: Q01DX005 (ip), vehicle: saline with Tween-80
[14] = dose: 120.0 mg/kg/injection, schedule: Q01DX005 (ip), vehicle: saline with Tween-80
[15] = dose: 240.0 mg/kg/injection, schedule: Q01DX005 (ip), vehicle: saline with Tween-80

Measured: T/C

CN1C(=O)N(C)C(=O)C(Cl)(Cl)C1=O
inactive: dose: 12.5 mg/kg/injection, schedule: Q01DX005 (ip), vehicle: Klucel (hydroxypropylcellulose) (HPC) 101 % of control | dose: 25.0 mg/kg/injection, schedule: Q01DX005 (ip), vehicle: Klucel (hydroxypropylcellulose) (HPC) 97 % of control

CC(=O)C1=C(O)/C(=C\C=C\c2ccccc2)OC1=O
inactive: dose: 50.0 mg/kg/injection, schedule: Q01DX009 (ip), vehicle: Klucel (hydroxypropylcellulose) (HPC) 111 % of control | dose: 100.0 mg/kg/injection, schedule: Q01DX009 (ip), vehicle: Klucel (hydroxypropylcellulose) (HPC) 104 % of control | dose: 200.0 mg/kg/injection, schedule: Q01DX009 (ip), vehicle: Klucel (hydroxypropylcellulose) (HPC) 118 % of control

C=C(CN(C)C)C(=O)c1ccc(OC)cc1
inactive: dose: 0.93 mg/kg/injection, schedule: Q01DX005 (ip), vehicle: saline 100 % of control | dose: 1.87 mg/kg/injection, schedule: Q01DX005 (ip), vehicle: saline 113 % of control | dose: 3.75 mg/kg/injection, schedule: Q01DX005 (ip), vehicle: saline 99 % of control

CN(CCOc1ccccc1)Cc1ccccc1
inactive: [1] 97 % of control | [2] 104 % of control | [3] 105 % of control

O=S(=O)(Nc1ncccn1)c1ccc(N=Cc2c3ccccc3nc3cc(Cl)ccc23)cc1
inactive: [4] 91 % of control | [5] 90 % of control | [6] 89 % of control

NC(=O)SCCC(=O)Nc1ccccc1
inactive: [7] 105 % of control | [8] 105 % of control | dose: 200.0 mg/kg/injection, schedule: Q01DX005 (ip), vehicle: Klucel (hydroxypropylcellulose) (HPC) 109 % of control

Cc1ccc(S(=O)(=O)OC2C(OCc3ccccc3)OCC(O)C2O)cc1 (stereo not given)
inactive: [4] 102 % of control | [5] 100 % of control | [6] 100 % of control

Cc1cc2c(cc1S(=O)(=O)O)C1C(C3C2C2(Cl)C(Cl)=C(Cl)C3(Cl)C2(Cl)Cl)C2(Cl)C(Cl)=C(Cl)C1(Cl)C2(Cl)Cl (stereo not given)
inactive: [9] 101 % of control | [10] 92 % of control | [11] 92 % of control

Cc1c([N+](=O)[O-])c(=O)oc2c(C)c3occc(=O)c3cc12
inactive: dose: 100.0 mg/kg/injection, schedule: Q01DX001 (ip), vehicle: saline with Tween-80 89 % of control | dose: 200.0 mg/kg/injection, schedule: Q01DX001 (ip), vehicle: saline with Tween-80 90 % of control | dose: 400.0 mg/kg/injection, schedule: Q01DX001 (ip), vehicle: saline with Tween-80 86 % of control

C=C(C(=O)OC1C/C(C)=C/C(O)C/C(C)=C/C2OC(=O)C(=C)C21)C(C)O (stereo not given)
inactive: dose: 25.0 mg/kg/injection, schedule: Q04DX002 (ip), vehicle: Klucel (hydroxypropylcellulose) (HPC) 109 % of control | dose: 25.0 mg/kg/injection, schedule: Q04DX002 (ip), vehicle: saline with Tween-80 110 % of control | dose: 50.0 mg/kg/injection, schedule: Q04DX002 (ip), vehicle: Klucel (hydroxypropylcellulose) (HPC) 117 % of control | dose: 50.0 mg/kg/injection, schedule: Q04DX002 (ip), vehicle: saline with Tween-80 102 % of control | dose: 100.0 mg/kg/injection, schedule: Q04DX002 (ip), vehicle: Klucel (hydroxypropylcellulose) (HPC) 117 % of control | [12] 124 % of control

COc1ccc(-c2nc(N)nc(-c3nc(N)nc(-c4ccc(OC)cc4)c3-c3ccc(OC)cc3)c2-c2ccc(OC)cc2)cc1
inactive: [13] 96 % of control | [14] 96 % of control | [15] 99 % of control

Cn1c(C(F)(F)F)nc2nc(Cl)c(Cl)nc21
inactive: dose: 25.0 mg/kg/injection, schedule: Q01DX005 (ip), vehicle: saline with Tween-80 108 % of control | [4] 106 % of control | [5] 101 % of control and 106 % of control | [6] 99 % of control and 103 % of control | dose: 400.0 mg/kg/injection, schedule: Q01DX005 (ip), vehicle: saline with Tween-80 101 % of control

CNC(=O)OCCC(OC(=O)NC)C1CCC2C3CCC4CC(OC(=O)c5ccccc5)CCC4(C)C3CCC12C (stereo not given)
inactive: [1] 107 % of control | [2] 98 % of control | [3] 93 % of control

CC1=CC(C)C/C=C/C2C3OC3(C)C(C)C3C(Cc4c[nH]c5ccccc45)NC(=O)C23C(=O)C=CC(=O)C1O (stereo not given)
inactive: dose: 0.2 mg/kg/injection, schedule: Q01DX005 (ip), vehicle: Klucel (hydroxypropylcellulose) (HPC) 102 % of control | dose: 0.4 mg/kg/injection, schedule: Q01DX005 (ip), vehicle: Klucel (hydroxypropylcellulose) (HPC) 97 % of control | dose: 0.8 mg/kg/injection, schedule: Q01DX005 (ip), vehicle: Klucel (hydroxypropylcellulose) (HPC) 106 % of control | dose: 1.6 mg/kg/injection, schedule: Q01DX005 (ip), vehicle: Klucel (hydroxypropylcellulose) (HPC) 107 % of control | dose: 2.0 mg/kg/injection, schedule: Q01DX005 (ip), vehicle: Klucel (hydroxypropylcellulose) (HPC) 109 % of control | dose: 16.0 mg/kg/injection, schedule: Q01DX005 (ip), vehicle: Klucel (hydroxypropylcellulose) (HPC) 117 % of control

CCOC(=O)C1=C(C)O/C(=C/c2cccc(Cl)c2)C1=O
inactive: [4] 117 % of control and 119 % of control | [5] 121 % of control and 123 % of control | [6] 113 % of control

CCN(CC)CN1C(=O)CC2(C1=O)c1ccccc1-c1ccccc12
inactive: dose: 100.0 mg/kg/injection, schedule: Q01DX001 (ip), vehicle: water 109 % of control | dose: 200.0 mg/kg/injection, schedule: Q01DX001 (ip), vehicle: water 106 % of control | dose: 400.0 mg/kg/injection, schedule: Q01DX001 (ip), vehicle: water 110 % of control

CCNC(=O)Nc1ccc(Cl)cn1
inactive: [9] 102 % of control | [10] 105 % of control | [11] 105 % of control

N#CC(Cc1ccccc1Cl)C(=O)O (stereo not given)
inactive: dose: 12.5 mg/kg/injection, schedule: Q01DX009 (none), vehicle: saline 99 % of control | dose: 25.0 mg/kg/injection, schedule: Q01DX009 (none), vehicle: saline 92 % of control | dose: 50.0 mg/kg/injection, schedule: Q01DX009 (none), vehicle: saline 90 % of control | dose: 100.0 mg/kg/injection, schedule: Q01DX009 (none), vehicle: saline 90 % of control

CC1(C)OCC2OC3OC(C)(C)OC3C(OS(C)(=O)=O)C2O1 (stereo not given)
inactive: [4] 98 % of control | [5] 105 % of control | [6] 99 % of control

Nc1[nH]c(=S)[nH]c(=S)c1N
inactive: dose: 100.0 mg/kg/injection, schedule: Q04DX002 (ip), vehicle: saline with Tween-80 102 % of control | [12] 98 % of control | dose: 400.0 mg/kg/injection, schedule: Q04DX002 (ip), vehicle: saline with Tween-80 94 % of control

CCOC1=CS(C)(=O)=NC(SC)=C1C#N (stereo not given)
inactive: dose: 50.0 mg/kg/injection, schedule: Q01DX001 (ip), vehicle: Klucel (hydroxypropylcellulose) (HPC) 99 % of control | dose: 100.0 mg/kg/injection, schedule: Q01DX001 (ip), vehicle: Klucel (hydroxypropylcellulose) (HPC) 105 % of control | dose: 200.0 mg/kg/injection, schedule: Q01DX001 (ip), vehicle: Klucel (hydroxypropylcellulose) (HPC) 99 % of control

CCOc1ccc(Br)cc1/C=N\N=C\c1cc(Br)ccc1OCC
inactive: dose: 100.0 mg/kg/injection, schedule: Q01DX009 (ip), vehicle: saline with Tween-80 90 % of control | dose: 100.0 mg/kg/injection, schedule: Q04DX003 (ip), vehicle: saline with Tween-80 95 % of control | dose: 200.0 mg/kg/injection, schedule: Q01DX009 (ip), vehicle: saline with Tween-80 100 % of control | dose: 200.0 mg/kg/injection, schedule: Q04DX003 (ip), vehicle: saline with Tween-80 95 % of control | dose: 400.0 mg/kg/injection, schedule: Q01DX009 (ip), vehicle: saline with Tween-80 100 % of control | dose: 400.0 mg/kg/injection, schedule: Q04DX003 (ip), vehicle: saline with Tween-80 100 % of control

COc1ccc(-c2[nH]c(=O)c(C#N)c(C(=O)NN)c2-c2ccc(OC)cc2)cc1
inactive: [13] 112 % of control | [14] 100 % of control | [15] 89 % of control

NC(=O)c1ccc2c(=O)c(C(=O)O)c[nH]c2c1
inactive: dose: 6.25 mg/kg/injection, schedule: Q01DX009 (ip), vehicle: saline with Tween-80 92 % of control | dose: 12.5 mg/kg/injection, schedule: Q01DX009 (ip), vehicle: saline with Tween-80 95 % of control | dose: 25.0 mg/kg/injection, schedule: Q01DX009 (ip), vehicle: saline with Tween-80 94 % of control

CN1CCc2cccc3c2[C@H]1Cc1ccc(O)c(O)c1-3
inactive: [7] 95 % of control | [8] 92 % of control
